Data published in ChEMBL document CHEMBL1201861, “Genomics of Drug Sensitity in Cancer screening data, Wellcome Trust Sanger Institute”.
Counter-ions that a name gives are not always drawn.

Legend:
A 172 = assay: cells; format: functional, cell-based, Homo sapiens; details: Homo sapiens, A 172;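 note: growth inhibition of A172 cells, measured with a cell viability readout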
Description: SANGER: Inhibition of human A172 cell growth in a cell viability assay.

NCI-H2087 = assay: cells; format: functional, cell-based, Homo sapiens; details: Homo sapiens, NCI-H2087;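 note: growth inhibition determined with a cell viability readout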
Description: SANGER: Inhibition of human NCI-H2087 cell growth in a cell viability assay.

MRK-nu-1 = assay: cells; format: functional, cell-based, Homo sapiens; details: Homo sapiens, MRK-nu-1;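 note: cell viability assay measuring growth suppression of human MRK-nu-1 cells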
Description: SANGER: Inhibition of human MRK-nu-1 cell growth in a cell viability assay.

NCI-H2052 = assay: cells; format: functional, cell-based, Homo sapiens; details: Homo sapiens, NCI-H2052;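 note: growth inhibition of NCI-H2052 cells, read out with a cell viability assay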
Description: SANGER: Inhibition of human NCI-H2052 cell growth in a cell viability assay.

NCI-H2347 = assay: cells; format: functional, cell-based, Homo sapiens; details: Homo sapiens, NCI-H2347;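 note: growth inhibition of the cell line, read out with a cell viability assay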
Description: SANGER: Inhibition of human NCI-H2347 cell growth in a cell viability assay.

KYSE-270 = assay: cells; format: functional, cell-based, Homo sapiens; details: Homo sapiens, KYSE-270;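 note: cell growth inhibition measured with a viability assay in the human KYSE-270 line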
Description: SANGER: Inhibition of human KYSE-270 cell growth in a cell viability assay.

8305C = assay: cells; format: functional, cell-based, Homo sapiens; details: Homo sapiens, 8305C
Description: SANGER: Inhibition of human 8305C cell growth in a cell viability assay.

DMS-153 = assay: cells; format: functional, cell-based, Homo sapiens; details: Homo sapiens, DMS-153
Description: SANGER: Inhibition of human DMS-153 cell growth in a cell viability assay.

BOKU = assay: cells; format: functional, cell-based, Homo sapiens; details: Homo sapiens, BOKU;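 note: growth inhibition of the human BOKU cell line, read out by a cell viability assay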
Description: SANGER: Inhibition of human BOKU cell growth in a cell viability assay.

NCI-H28 = assay: cells; format: functional, cell-based, Homo sapiens; details: Homo sapiens, NCI-H28;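 note: growth inhibition of human NCI-H28 cells, read out as cell viability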
Description: SANGER: Inhibition of human NCI-H28 cell growth in a cell viability assay.

M14 = assay: cells; format: functional, cell-based, Homo sapiens; details: Homo sapiens, M14;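 note: growth inhibition of M14 cells, read out with a cell viability assay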
Description: SANGER: Inhibition of human M14 cell growth in a cell viability assay.

MDA-MB-175-VII = assay: cells; format: functional, cell-based, Homo sapiens; details: Homo sapiens, MDA-MB-175-VII
RCM-1 = assay: cells; format: functional, cell-based, Homo sapiens; details: Homo sapiens, RCM-1;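 note: growth inhibition of the RCM-1 line, determined with a cell viability readout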
Description: SANGER: Inhibition of human RCM-1 cell growth in a cell viability assay.

Hs-578T = assay: cells; format: functional, cell-based, Homo sapiens; details: Homo sapiens, Hs-578T
Description: SANGER: Inhibition of human Hs-578-T cell growth in a cell viability assay.

EFM-19 = assay: cells; format: functional, cell-based, Homo sapiens; details: Homo sapiens, EFM-19;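 note: growth inhibition of human EFM-19 cells, measured in a cell viability assay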
Description: SANGER: Inhibition of human EFM-19 cell growth in a cell viability assay.

Huh-7 = assay: cells; format: functional, cell-based, Homo sapiens; details: Homo sapiens, Huh-7;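 note: HuH-7 cell growth inhibition, read out with a cell viability assay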
Description: SANGER: Inhibition of human HuH-7 cell growth in a cell viability assay.

ME-180 = assay: cells; format: functional, cell-based, Homo sapiens; details: Homo sapiens, ME-180;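 note: cell viability assay measuring growth inhibition of ME-180 cells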
Description: SANGER: Inhibition of human ME-180 cell growth in a cell viability assay.

Detroit 562 = assay: cells; format: functional, cell-based, Homo sapiens; details: Homo sapiens, Detroit 562;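 note: growth inhibition of human Detroit 562 cells, read out by a cell viability assay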
Description: SANGER: Inhibition of human Detroit562 cell growth in a cell viability assay.

CHP-126 = assay: cells; format: functional, cell-based, Homo sapiens; details: Homo sapiens, CHP-126
Description: SANGER: Inhibition of human CHP-126 cell growth in a cell viability assay.

SNU-423 = assay: cells; format: functional, cell-based, Homo sapiens; details: Homo sapiens, SNU-423
Description: SANGER: Inhibition of human SNU-423 cell growth in a cell viability assay.

NCI-H2081 = assay: cells; format: functional, cell-based, Homo sapiens; details: Homo sapiens, NCI-H2081;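 note: growth inhibition of human NCI-H2081 cells, read out with a cell viability assay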
Description: SANGER: Inhibition of human NCI-H2081 cell growth in a cell viability assay.

SW1783 = assay: cells; format: functional, cell-based, Homo sapiens; details: Homo sapiens, SW1783
Description: SANGER: Inhibition of human SW1783 cell growth in a cell viability assay.

SU-DHL-1 = assay: SANGER: Inhibition of human SU-DHL-1 cell growth in a cell viability assay.; format: functional, cell-based; details: Homo sapiens, SU-DHL-1
SW1990 = assay: cells; format: functional, cell-based, Homo sapiens; details: Homo sapiens, SW1990
Description: SANGER: Inhibition of human SW1990 cell growth in a cell viability assay.

KYSE-520 cell line = assay: cells; format: functional, cell-based, Homo sapiens; details: Homo sapiens, KYSE-520;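 note: growth inhibition of human KYSE-520 cells, read out with a viability assay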
Description: SANGER: Inhibition of human KYSE-520 cell growth in a cell viability assay.

EFO-21 = assay: cells; format: functional, cell-based, Homo sapiens; details: Homo sapiens, EFO-21;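 note: growth inhibition of EFO-21 cells measured with a viability assay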
Description: SANGER: Inhibition of human EFO-21 cell growth in a cell viability assay.

NCI-H2171 = assay: cells; format: functional, cell-based, Homo sapiens; details: Homo sapiens, NCI-H2171;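 note: growth inhibition of human NCI-H2171 cells, read out by a cell viability assay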
Description: SANGER: Inhibition of human NCI-H2171 cell growth in a cell viability assay.

OPM-2 = assay: cells; format: functional, cell-based, Homo sapiens; details: Homo sapiens, OPM-2;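 note: growth of OPM-2 cells measured with a viability assay, IC50 for suppression of proliferation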
Description: SANGER: Inhibition of human OPM-2 cell growth in a cell viability assay.

NCI-H727 = assay: cells; format: functional, cell-based, Homo sapiens; details: Homo sapiens, NCI-H727;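 note: growth inhibition of human NCI-H727 cells, read out with a cell viability assay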
Description: SANGER: Inhibition of human NCI-H727 cell growth in a cell viability assay.

SN12C = assay: cells; format: functional, cell-based, Homo sapiens; details: Homo sapiens, SN12C;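 note: growth inhibition of human SN12C cells, measured by a cell viability assay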
Description: SANGER: Inhibition of human SN12C cell growth in a cell viability assay.

HSC-4 = assay: cells; format: functional, cell-based, Homo sapiens; details: Homo sapiens, HSC-4;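 note: growth inhibition of human HSC-4 cells, read out with a cell viability assay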
Description: SANGER: Inhibition of human HSC-4 cell growth in a cell viability assay.

NCI-H1693 = assay: cells; format: functional, cell-based, Homo sapiens; details: Homo sapiens, NCI-H1693;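 note: growth inhibition of the human cell line, read out with a cell viability assay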
Description: SANGER: Inhibition of human NCI-H1693 cell growth in a cell viability assay.

NCI-H748 = assay: cells; format: functional, cell-based, Homo sapiens; details: Homo sapiens, NCI-H748;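 note: growth inhibition of NCI-H748 cells, measured by a cell viability assay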
Description: SANGER: Inhibition of human NCI-H748 cell growth in a cell viability assay.

HLE = assay: cells; format: functional, cell-based, Homo sapiens; details: Homo sapiens, HLE;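 note: growth inhibition of human HLE cells, read out by a cell viability assay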
Description: SANGER: Inhibition of human HLE cell growth in a cell viability assay.

HSC-3 = assay: cells; format: functional, cell-based, Homo sapiens; details: Homo sapiens, HSC-3
Description: SANGER: Inhibition of human HSC-3 cell growth in a cell viability assay.

639-V = assay: cells; format: functional, cell-based, Homo sapiens; details: Homo sapiens, 639-V;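 note: growth inhibition of 639-V cells, read out with a cell viability assay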
Description: SANGER: Inhibition of human 639-V cell growth in a cell viability assay.

786-0 = assay: cells; format: functional, cell-based, Homo sapiens; details: Homo sapiens
Description: SANGER: Inhibition of human 786-0 cell growth in a cell viability assay.

IGROV-1 = assay: cells; format: functional, cell-based, Homo sapiens; details: Homo sapiens, IGROV-1;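 note: reduction of IGROV-1 cell growth, read out with a viability assay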
Description: SANGER: Inhibition of human IGROV-1 cell growth in a cell viability assay.

C-33-A = assay: cells; format: functional, cell-based, Homo sapiens; details: Homo sapiens, C-33-A;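 note: cell viability assay measuring growth inhibition of C-33-A cells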
Description: SANGER: Inhibition of human C-33-A cell growth in a cell viability assay.

GAMG = assay: cells; format: functional, cell-based, Homo sapiens; details: Homo sapiens, GAMG;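 note: cell growth inhibition measured by a viability assay in the GAMG human cell line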
Description: SANGER: Inhibition of human GAMG cell growth in a cell viability assay.

HPAF-II = assay: cells; format: functional, cell-based, Homo sapiens; details: Homo sapiens, HPAF-II;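 note: growth inhibition of HPAF-II cells, read out with a cell viability assay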
Description: SANGER: Inhibition of human HPAF-II cell growth in a cell viability assay.

LCLC-103H cell line = assay: cells; format: functional, cell-based, Homo sapiens; details: Homo sapiens, LCLC-103H
Description: SANGER: Inhibition of human LCLC-103H cell growth in a cell viability assay.

HCC1395 = assay: cells; format: functional, cell-based, Homo sapiens; details: Homo sapiens, HCC1395;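 note: growth inhibition of HCC1395 cells, read out by a cell viability assay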
Description: SANGER: Inhibition of human HCC1395 cell growth in a cell viability assay.

BFTC-909 = assay: cells; format: functional, cell-based, Homo sapiens; details: Homo sapiens, BFTC-909
Description: SANGER: Inhibition of human BFTC-909 cell growth in a cell viability assay.

SMILES: C=C(c1ccc(C(=O)O)cc1)c1cc2c(cc1C)C(C)(C)CCC2(C)C [BEXAROTENE]
- IC50 (A 172): > 8000 nM
- IC50 (NCI-H2087): > 8000 nM
- IC50 (MRK-nu-1): > 8000 nM
- IC50 (NCI-H2052): > 8000 nM
- IC50 (NCI-H2347): > 8000 nM
- IC50 (KYSE-270): > 8000 nM
- IC50 (8305C): > 8000 nM
- IC50 (DMS-153): > 8000 nM
- IC50 (BOKU): > 8000 nM
- IC50 (NCI-H28): > 8000 nM
- IC50 (M14): > 8000 nM
- IC50 (MDA-MB-175-VII): > 8000 nM
- IC50 (RCM-1): > 8000 nM
- IC50 (Hs-578T): > 8000 nM
- IC50 (EFM-19): > 8000 nM
- IC50 (Huh-7): > 8000 nM
- IC50 (ME-180): > 8000 nM
- IC50 (Detroit 562): > 8000 nM
- IC50 (CHP-126): > 8000 nM
- IC50 (SNU-423): > 8000 nM
- IC50 (NCI-H2081): > 8000 nM
- IC50 (SW1783): > 8000 nM
- IC50 (SU-DHL-1): > 8000 nM
- IC50 (SW1990): > 8000 nM
- IC50 (KYSE-520 cell line): > 8000 nM
- IC50 (EFO-21): > 8000 nM
- IC50 (NCI-H2171): > 8000 nM
- IC50 (OPM-2): > 8000 nM
- IC50 (NCI-H727): > 8000 nM
- IC50 (SN12C): > 8000 nM
- IC50 (HSC-4): > 8000 nM
- IC50 (NCI-H1693): > 8000 nM
- IC50 (NCI-H748): > 8 µM
- IC50 (HLE): > 8000 nM
- IC50 (HSC-3): > 8000 nM
- IC50 (639-V): > 8000 nM
- IC50 (786-0): > 8000 nM
- IC50 (IGROV-1): > 8000 nM
- IC50 (C-33-A): > 8000 nM
- IC50 (GAMG): > 8000 nM
- IC50 (HPAF-II): > 8000 nM
- IC50 (LCLC-103H cell line): > 8000 nM
- IC50 (HCC1395): > 8000 nM
- IC50 (BFTC-909): > 8000 nM

SMILES: COc1cccc2c1C(=O)c1c(O)c3c(c(O)c1C2=O)C[C@@](O)(C(=O)CO)C[C@@H]3O[C@H]1C[C@H](N)[C@H](O)[C@H](C)O1 [DOXORUBICIN]
- IC50 (A 172): 80.5 nM
- IC50 (NCI-H2087): 49.4 nM
- IC50 (MRK-nu-1): 43.7 nM
- IC50 (NCI-H2052): 160 nM
- IC50 (NCI-H2347): 158 nM
- IC50 (KYSE-270): 7.21 nM
- IC50 (8305C): 63.1 nM
- IC50 (DMS-153): 698 nM
- IC50 (BOKU): 111 nM
- IC50 (NCI-H28): > 1020 nM
- IC50 (M14): 905 nM
- IC50 (MDA-MB-175-VII): 972 nM
- IC50 (RCM-1): > 1020 nM
- IC50 (Hs-578T): > 1020 nM
- IC50 (EFM-19): 478 nM
- IC50 (Huh-7): 258 nM
- IC50 (ME-180): 186 nM
- IC50 (Detroit 562): 231 nM
- IC50 (CHP-126): 59.2 nM
- IC50 (SNU-423): 155 nM
- IC50 (NCI-H2081): 234 nM
- IC50 (SW1783): 98 nM
- IC50 (SU-DHL-1): 103 nM
- IC50 (SW1990): 202 nM
- IC50 (KYSE-520 cell line): 261 nM
- IC50 (EFO-21): 362 nM
- IC50 (NCI-H2171): 441 nM
- IC50 (OPM-2): 502 nM
- IC50 (NCI-H727): 22.8 nM
- IC50 (SN12C): 395 nM
- IC50 (HSC-4): 75.8 nM
- IC50 (NCI-H1693): 290 nM
- IC50 (NCI-H748): 0.147 µM
- IC50 (HLE): 35.8 nM
- IC50 (HSC-3): 74.5 nM
- IC50 (639-V): 15.9 nM
- IC50 (786-0): 8.47 nM
- IC50 (IGROV-1): 7.2 nM
- IC50 (C-33-A): 32.9 nM
- IC50 (GAMG): 60 nM
- IC50 (HPAF-II): 527 nM
- IC50 (LCLC-103H cell line): 20.5 nM
- IC50 (HCC1395): > 1020 nM
- IC50 (BFTC-909): 118 nM

SMILES: COC1=CC(c2cc3ccccc3[nH]2)=N/C1=C\c1[nH]c(C)cc1C [OBATOCLAX MESYLATE]
- IC50 (A 172): 887 nM
- IC50 (NCI-H2087): 130 nM
- IC50 (MRK-nu-1): 49.4 nM
- IC50 (NCI-H2052): 567 nM
- IC50 (NCI-H2347): 888 nM
- IC50 (KYSE-270): 29.8 nM
- IC50 (8305C): 180 nM
- IC50 (DMS-153): 2170 nM
- IC50 (BOKU): 1280 nM
- IC50 (NCI-H28): 741 nM
- IC50 (M14): 460 nM
- IC50 (MDA-MB-175-VII): 1690 nM
- IC50 (RCM-1): 572 nM
- IC50 (Hs-578T): 183 nM
- IC50 (EFM-19): 124 nM
- IC50 (Huh-7): 379 nM
- IC50 (ME-180): 1440 nM
- IC50 (Detroit 562): 489 nM
- IC50 (CHP-126): 1570 nM
- IC50 (SNU-423): 129 nM
- IC50 (NCI-H2081): 781 nM
- IC50 (SW1783): 193 nM
- IC50 (SU-DHL-1): 1250 nM
- IC50 (SW1990): 239 nM
- IC50 (KYSE-520 cell line): 483 nM
- IC50 (EFO-21): 841 nM
- IC50 (NCI-H2171): 850 nM
- IC50 (OPM-2): 509 nM
- IC50 (NCI-H727): 80.5 nM
- IC50 (SN12C): 886 nM
- IC50 (HSC-4): 667 nM
- IC50 (NCI-H1693): 2000 nM
- IC50 (NCI-H748): 10.6 µM
- IC50 (HLE): 169 nM
- IC50 (HSC-3): < 62.5 nM
- IC50 (639-V): 156 nM
- IC50 (786-0): < 62.5 nM
- IC50 (IGROV-1): < 62.5 nM
- IC50 (C-33-A): < 62.5 nM
- IC50 (GAMG): 58 nM
- IC50 (HPAF-II): 1940 nM
- IC50 (LCLC-103H cell line): 185 nM
- IC50 (HCC1395): 1930 nM
- IC50 (BFTC-909): 453 nM
